Converted amounts (≈) assume the structure as drawn.

This assay has as its system HCT-116. The experiment in a line: Cytotoxicity against human HCT116 cells. Type of assay: functional, cell-based.

`CC[C@H](C)[C@@H]1NC(=O)c2csc(n2)[C@@H](C(C)C)NC(=O)[C@H]2N=C(O[C@@H]2C)[C@H](C(C)C)NC(=O)c2csc(n2)[C@@H](Cc2ccccc2)NC(=O)[C@H]2N=C1O[C@@H]2C` [PATELLAMIDE E]: the midpoint of inhibition, the IC50, lay at 125 mg/L (≈ 158 µM).

Usually IC50 stands for the concentration needed to halve the response being measured. Lower therefore signals inhibition by little substance.

Values taken from ChEMBL document CHEMBL1159016, “Patellamide E: a new cyclic peptide from the ascidian Lissoclinum patella” (J Nat Prod, 1992).
